According to patent US9078871B2, “Estrogen receptor modulators and uses thereof” (SERAGON PHARMACEUTICALS, INC., priority 2010, dated 2015):

What was measured:
[1] = test system: MCF-7 cells; experiment: Breast Cancer Cell Viability Assay (MCF7 Viability Assay); assay type: cell-based; details: 5 days' compound exposure, CellTiter-Glo; for IC50: Homo sapiens, MCF7, 120 h
Procedure, shortened: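 MCF-7 cells, 320 per well in RPMI with 10% FBS and 20 mM HEPES, adhered overnight, then exposed 5 days to an eleven-point semilog dilution (final 0.3–0.000003 μM). CellTiter-Glo luminescence; % viability relative to untreated cells after subtracting cell-free background.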

[2] = molecular target: T1, ER-α (Homo sapiens, UniProt P03372); experiment: ER-α in Cell Western Assay (SP1); assay type: cell-based; details: MCF-7 cells, SP1 rabbit monoclonal Ab, 4 or 24 hr post compound addition, read-out: ER In-Cell Western Assay (SP1); for Emax: MCF7, Max Response; for DC50: IC50
T1 construct: endogenous in cells; host or cells: MCF-7
T1 sequence (P03372 1-595): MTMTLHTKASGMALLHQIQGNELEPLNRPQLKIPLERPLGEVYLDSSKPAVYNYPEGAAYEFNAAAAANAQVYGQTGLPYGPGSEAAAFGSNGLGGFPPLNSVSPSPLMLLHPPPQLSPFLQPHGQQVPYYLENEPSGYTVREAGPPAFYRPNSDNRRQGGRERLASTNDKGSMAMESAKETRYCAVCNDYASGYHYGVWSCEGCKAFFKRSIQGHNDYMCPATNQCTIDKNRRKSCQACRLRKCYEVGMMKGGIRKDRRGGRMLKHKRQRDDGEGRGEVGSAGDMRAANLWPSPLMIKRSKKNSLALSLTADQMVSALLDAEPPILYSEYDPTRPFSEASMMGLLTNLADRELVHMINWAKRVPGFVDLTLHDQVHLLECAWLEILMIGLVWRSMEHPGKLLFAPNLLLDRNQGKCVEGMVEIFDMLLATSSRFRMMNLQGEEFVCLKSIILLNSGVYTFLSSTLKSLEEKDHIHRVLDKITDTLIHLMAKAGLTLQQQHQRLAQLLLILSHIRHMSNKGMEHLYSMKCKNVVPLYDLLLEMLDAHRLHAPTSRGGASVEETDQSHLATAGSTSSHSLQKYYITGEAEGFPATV
Procedure, shortened: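 MCF-7 cells in charcoal-stripped FBS medium treated with 11-point semilog dilutions (0.3–0.000003 μM final) for 4 or 24 hr, then fixed and immunostained with SP1 anti-ER antibody. ER signal (800 nm) normalized to DRAQ5 DNA signal (700 nm) and expressed as % of untreated cells.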

[3] = molecular target: T1, ER-α; experiment: ER-α In Cell Western Assay (ER1D5); assay type: cell-based; details: MCF-7 cells, ER1D5 antibody, 4 or 24 hr post compound addition, read-out: ER In-Cell Western Assay (ER1D5); for Emax: MCF7, Max Response; for DC50: IC50
Procedure, shortened: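 MCF-7 cells in RPMI with 10% charcoal-stripped FBS treated with 11-point semilog series (0.3–0.000003 μM final) for 4 or 24 h. Fixed cells stained with ER1D5 plus IRDye 800CW secondary and DRAQ5; ER level = 800/700 nm intensity ratio as % of untreated cells.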

[4] = test system: MCF-7 tumors; experiment: Xenograft Assay (MCF-7 Derivative), tamoxifen treatment of MCF-7 tumors; assay type: in vivo; details: female nu/nu mice with 17-β estradiol pellets bearing MCF-7 tumors, oral gavage
Description: Female nu/nu mice (with supplemental 17-P3 Estradiol pellets; 0.72 mg; 60 day slow release) bearing MCF-7 tumors (mean tumor volume 200 mm^3) were treated with Tamoxifen (citrate) by oral gavage. Tumor volume (length×width^2/2) and body weight were monitored twice weekly. […] At 120 days of treatment, tamoxifen dose was increased. Rapidly growing tumors were deemed tamoxifen resistant and selected for in vivo passage into new host animals. Tumor Fragments (˜100 mm^3/animal) from the tamoxifen resistant tumors were subcutaneously implanted into the right flank of female nu/nu mice (with 17-P3 Estradiol pellets (0.72 mg; 60 day slow release)). Passaged tumors were maintained under constant Tamoxifen selection and Tumor volume (length×width^2/2) monitored weekly. When tumor volume reached ˜150-250 mm^3, animals were randomized into treatment groups (mean tumor volume 200 mm^3) and tamoxifen treatment was terminated (except for a tamoxifen control arm). Animals were treated with Vehicle or test compound daily for 4 weeks. Tumor volume and body weight were monitored twice weekly for the duration of the study. At the conclusion of the treatment period; plasma and tumor samples were taken for pharmacokinetic and pharmacodynamic analyses, respectively.

SMILES | MCF7 Viability Assay Max Response [1] | IC50 [1] | Emax [2] | DC50 [2] | Emax [3] | DC50 [3] | anti-tumor response (tumor volume) [4] | time at which evident tumor growth was first observed [4]
CC1=C(c2ccc(O)c(F)c2)C(c2ccc(OC[C@H](C)N3CC[C@@H](C)C3)cc2)Oc2ccc(O)cc21 (stereo partly drawn) [Example 33, 3-(3-Fluoro-4-hydroxyphenyl)-4-methyl-2-(4-((S)-2-((R)-3-methylpyrrolidin-1-yl)propoxy)phenyl)-2H-chromen-6-ol] | ++ (++ = a single % value ≧50%) | ≤ 1 nM | ≥ 85% | ≤ 1 nM | ≥ 65% | ≤ 1 nM | – | –
CC1=C(c2cccc(O)c2)C(c2ccc(OCCN3CCCC3)cc2F)Oc2ccc(O)cc21 (centres unmarked) [Example 34, 2-(2-Fluoro-4-(2-(pyrrolidin-1-yl)ethoxy)phenyl)-3-(3-hydroxyphenyl)-4-methyl-2H-chromen-6-ol] | ++ (++ = a single % value ≧50%) | ≤ 1 nM | 60 to 85% | ≤ 1 nM | 40 to 65% | ≤ 1 nM | – | –
CC1=C(c2cccc(O)c2)C(c2ccc(OC[C@H](C)N3CC[C@@H](C)C3)cc2F)Oc2ccc(O)cc21 (stereo partly drawn) [Example 35, 2-(2-Fluoro-4-((S)-2-((R)-3-methylpyrrolidin-1-yl)propoxy)phenyl)-3-(3-hydroxyphenyl)-4-methyl-2H-chromen-6-ol] | ++ (++ = a single % value ≧50%) | ≤ 1 nM | ≥ 85% | ≤ 1 nM | ≥ 65% | ≤ 1 nM | – | –
CC1=C(c2cccc(O)c2)C(c2ccc(OCCN3CCCC3)cc2)Oc2ccc(O)cc21 (centres unmarked) [Example 36, 3-(3-Hydroxyphenyl)-4-methyl-2-(4-(2-(pyrrolidin-1-yl)ethoxy)phenyl)-2H-chromen-6-ol] | ++ (++ = a single % value ≧50%) | ≤ 1 nM | 60 to 85% | ≤ 1 nM | 40 to 65% | ≤ 1 nM | – | –
CC1=C(c2cccc(O)c2)C(c2ccc(OC[C@H](C)N3CCC3)cc2)Oc2ccc(O)cc21 (stereo partly drawn) [Example 37, 2-(4-((S)-2-(Azetidin-1-yl)propoxy)phenyl)-3-(3-hydroxyphenyl)-4-methyl-2H-chromen-6-ol] | ++ (++ = a single % value ≧50%) | ≤ 1 nM | 60 to 85% | ≤ 1 nM | 40 to 65% | ≤ 1 nM | – | –
CC1=C(c2cccc(O)c2)C(c2ccc(OCCN3CCC3)cc2)Oc2ccc(O)cc21 (centres unmarked) [Example 38, 2-(4-(2-(Azetidin-1-yl)ethoxy)phenyl)-3-(3-hydroxyphenyl)-4-methyl-2H-chromen-6-ol] | ++ (++ = a single % value ≧50%) | ≤ 1 nM | 60 to 85% | ≤ 1 nM | 40 to 65% | ≤ 1 nM | – | –
CC1=C(c2ccc(C)c(O)c2)C(c2ccc(OC[C@H](C)N3CC[C@@H](C)C3)cc2)Oc2ccc(O)cc21 (stereo partly drawn) [Example 39, 3-(3-Hydroxy-4-methylphenyl)-4-methyl-2-(4-((S)-2-((R)-3-methylpyrrolidin-1-yl)propoxy)phenyl)-2H-chromen-6-ol] | ++ (++ = a single % value ≧50%) | > 1 nM | 60 to 85% | > 1 nM | ≥ 65% | > 1 nM | – | –
CC1=C(c2cccc(O)c2)C(c2ccc(OCCN3CCC[C@@H](C)C3)cc2)Oc2ccc(O)cc21 (stereo partly drawn) [Example 53, 3-(3-Hydroxyphenyl)-4-methyl-2-(4-(2-((R)-3-methylpiperidin-1-yl)ethoxy)phenyl)-2H-chromen-6-ol] | ++ (++ = a single % value ≧50%) | ≤ 1 nM | 60 to 85% | ≤ 1 nM | 40 to 65% | ≤ 1 nM | – | –
CC1=C(c2ccc(Br)cc2)C(c2ccc(OC[C@H](C)N3CC[C@@H](C)C3)cc2)Oc2ccc(O)cc21 (stereo partly drawn) [Example 54, 3-(4-Bromophenyl)-4-methyl-2-(4-((S)-2-((R)-3-methylpyrrolidin-1-yl)propoxy)phenyl)-2H-chromen-6-ol] | ++ (++ = a single % value ≧50%) | > 1 nM | 60 to 85% | > 1 nM | ≥ 65% | > 1 nM | – | –
CC1=C(c2ccc(F)cc2)C(c2ccc(OCCN3CCCC3)cc2)Oc2ccc(O)cc21 (centres unmarked) [Example 55, 3-(4-Fluorophenyl)-4-methyl-2-(4-(2-(pyrrolidin-1-yl)ethoxy)phenyl)-2H-chromen-6-ol] | ++ (++ = a single % value ≧50%) | > 1 nM | 60 to 85% | ≤ 1 nM | 40 to 65% | > 1 nM | – | –
CC1=C(c2ccccc2C)C(c2ccc(OC[C@H](C)N3CC[C@@H](C)C3)cc2)Oc2ccc(O)cc21 (stereo partly drawn) [Example 56, 4-Methyl-2-(4-((S)-2-((R)-3-methylpyrrolidin-1-yl)propoxy)phenyl)-3-(o-tolyl)-2H-chromen-6-ol] | ++ (++ = a single % value ≧50%) | ≤ 1 nM | 60 to 85% | ≤ 1 nM | ≥ 65% | ≤ 1 nM | – | –
CC1=C(c2ccc(F)c(O)c2)C(c2ccc(OC[C@H](C)N3CC[C@@H](C)C3)cc2)Oc2ccc(O)cc21 (stereo partly drawn) [Example 57, 3-(4-Fluoro-3-hydroxyphenyl)-4-methyl-2-(4-((S)-2-((R)-3-methylpyrrolidin-1-yl)propoxy)phenyl)-2H-chromen-6-ol] | ++ (++ = a single % value ≧50%) | ≤ 1 nM | ≥ 85% | ≤ 1 nM | ≥ 65% | ≤ 1 nM | – | –
C#Cc1ccc(C2=C(C)c3cc(O)ccc3OC2c2ccc(OC[C@H](C)N3CC[C@@H](C)C3)cc2)cc1 (stereo partly drawn) [Example 58, 3-(4-Ethynylphenyl)-4-methyl-2-(4-((S)-2-((R)-3-methylpyrrolidin-1-yl)propoxy)phenyl)-2H-chromen-6-ol] | ++ (++ = a single % value ≧50%) | > 1 nM | 60 to 85% | ≤ 1 nM | ≥ 65% | > 1 nM | – | –
CC1=C(c2ccc(S(C)(=O)=O)cc2)C(c2ccc(OC[C@H](C)N3CC[C@@H](C)C3)cc2)Oc2ccc(O)cc21 (stereo partly drawn) [Example 59, 4-Methyl-2-(4-((S)-2-((R)-3-methylpyrrolidin-1-yl)propoxy)phenyl)-3-(4-(methylsulfonyl)phenyl)-2H-chromen-6-ol] | ++ (++ = a single % value ≧50%) | > 1 nM | 60 to 85% | > 1 nM | 40 to 65% | > 1 nM | – | –
CC/C(=C(\c1ccccc1)c1ccc(OCCN(C)C)cc1)c1ccccc1 [Tamoxifen, tamoxifen] | – | – | – | – | – | – | tumor volume remained static | approximately 100 days of treatment
